Literature values, collected in patent US10945992B1, “Dosage forms of rofecoxib and related methods” (Tremeau Pharmaceuticals, Inc., priority 2019, dated 2021).

Legend:
[1] = cited from earlier work; for incidence of gastrointestinal (GI) ulcers visualized at endoscopy compared to certain non-selective NSAIDs: FDA 2005; for risk of serious adverse cardiovascular events compared to placebo: long-term controlled clinical trial / FDA 2005
patients with HA = settings: six weeks of Part 1; P<0.001; cited from earlier work

SMILES: Cc1ccc(-c2cc(C(F)(F)F)nn2-c2ccc(S(N)(=O)=O)cc2)cc1 [celecoxib]
- incidence of gastrointestinal (GI) ulcers visualized at endoscopy compared to certain non-selective NSAIDs [1]: reduction
- risk of serious adverse cardiovascular events compared to placebo [1]: increased risk

SMILES: Cc1ccc(-c2ncc(Cl)cc2-c2ccc(S(C)(=O)=O)cc2)cn1 [etoricoxib]
- improvement on all endpoints versus placebo (patients with HA): clinically and statistically significant improvement

SMILES: Cc1onc(-c2ccccc2)c1-c1ccc(S(N)(=O)=O)cc1 [valdecoxib]
- incidence of gastrointestinal (GI) ulcers visualized at endoscopy compared to certain non-selective NSAIDs [1]: reduction
- risk of serious adverse cardiovascular events compared to placebo [1]: increased risk
